The first assay relates to HCV replicon (genotype 1b, Con1 isolate) in human hepatoma cell line Huh7. Nature of the assay: HCV replicon assay (antiviral activity, anti-HCV core ELISA readout). The assay is classed as cell-based. As to conditions: Hepatitis C virus, Huh-7, 72 h, read-out: EC50, activity against HCV genotype 1b. The protocol: The HCV replicon assay was used to determine the antiviral activity of substituted phosphoramidic acid esters of the general formula 1, 1.1, 1.2, 2, 2.1, and 2.2 (test compounds). The test cell line used in the HCV Replicon Assay was a human hepatoma cell line Huh7 incorporating the HCV replicon (genotype 1b, Con1 isolate). 96-well plates were seeded with cells at a density of 7.5×10^3 cells per well in 50 μl of assay media. Test compound stock solution was made up freshly in assay medium (DMEM 1×, Cellgro; cat. #10-013-CV) as a 2× stock. A total of 11 serial 3-fold dilutions of test compounds were prepared from the 2× stock in assay media ranging from 20 nM-0.2 pM final concentrations. At least 4 hours after cells were seeded, compound treatment was initiated by adding 50 μl of compound dilution to the plates. […] The final DMSO concentration was 0.5%. Cells and inhibitors incubated for 3 days at 37° C./5% CO2. Media was removed from the plates via gentle tapping. Cells were fixed with 100 μl 1:1 acetone:methanol for 1 minute, washed three times with PBS buffer, and then blocked with 150 μl/well 10% Fetal Bovine Serum (FBS) in PBS for 1 hour at room temperature. Cells were washed three times with PBS buffer, and incubated with 100 μl/well anti-hepatitis C core mAb (Affinity BioReagents; cat. # MA1-080, 1 mg/ml stock diluted 1:4,000 in 10% FBS-PBS) for 2 hours at 37° C. Cells were washed three times with PBS and incubated with 100 μl/well HRP-Goat Anti-Mouse antibody (diluted 1:3.500 in 10% FBS-PBS) for 1 hour at 37° C. Cells were washed three times with PBS and developed with 100 μl/well OPD solution (1 OPD tablet+12 ml citrate/phosphate buffer+5 μl 30% H2O2 per plate) for 30 minutes in the dark at room temperature. The reaction was stopped with 100 μl/well of 2N H2SO4, and absorbance measured at A490 X on a Victor^3 V 1420 multilabel counter (Perkin Elmer). The EC50 values were calculated for test compounds from the resulting best-fit equations determined by Xlfit software.
Take `CC(C)OC(=O)[C@H](C)NP(=O)(OC[C@H]1O[C@@H](n2ccc(=O)[nH]c2=O)[C@](C)(F)[C@@H]1O)Oc1ccccc1` (some centres unmarked) [PSI-7851, reference compound]: the half-maximal effective concentration (EC50) came to 59.4 nM.

Turning to `CN1CCCC(NP(=O)(OC[C@H]2O[C@@H](n3ccc(N)nc3=O)C(F)(F)[C@@H]2O)Oc2ccccc2)C1=O` (stereo partly drawn) [1(8), ((2R,3R,5R)-5-(4-amino-2-oxopyrimidin-1(2H)-yl)-4,4-difluoro-3-hydroxytetrahydrofuran-2-yl)methyl phenyl 1-methyl-2-oxopiperidin-3-ylphosphoramidate], the EC50 was 873 nM. In the case of `C[C@@]1(F)[C@H](O)[C@@H](COP(=O)(N[C@H]2CCOC2=O)Oc2ccccc2)O[C@H]1n1ccc(=O)[nH]c1=O` (stereo partly drawn) [1.1.(2), ((2R,3R,4R,5R)-5-(2,4-dioxo-3,4-dihydropyrimidin-1(2H)-yl)-4-fluoro-3-hydroxy-4-methyltetrahydrofuran-2-yl)methyl phenyl (S)-2-oxotetrahydrofuran-3-ylphosphoramidate], the half-maximal effective concentration (EC50) is 274 nM.

For the compound `CN1CCC(NP(=O)(OC[C@H]2O[C@@H](n3ccc(=O)[nH]c3=O)C(F)(F)[C@@H]2O[Si](C)(C)C(C)(C)C)Oc2ccccc2)C1=O` (stereo partly drawn) [1.1.(4), ((2R,3R,5R)-3-(tert-butyldimethylsilyloxy)-5-(2,4-dioxo-3,4-dihydropyrimidin-1(2H)-yl)-4,4-difluorotetrahydrofuran-2-yl)methyl phenyl 1-methyl-2-oxopyrrolidin-3-ylphosphoramidate], the half-maximal effective concentration (EC50) is 40.5 nM. The same measure, in the same setting: under `CC(=O)Nc1ccn([C@@H]2O[C@H](CO[P@@](=O)(N[C@H]3CCOC3=O)Oc3ccccc3)[C@@H](OC(C)=O)C2(F)F)c(=O)n1` [1(4), (2R,3R,5R)-5-(4-acetamido-2-oxopyrimidin-1(2H)-yl)-4,4-difluoro-2-(((S)—((S)-2-oxotetrahydrofuran-3-ylamino)(phenoxy)phosphoryloxy)methyl)tetrahydrofuran-3-yl acetate] stands 42.1 nM; under `CC(=O)O[C@@H]1[C@@H](COP(=O)(N[C@H]2CCOC2=O)Oc2ccccc2)O[C@@H](n2ccc(N)nc2=O)C1(F)F` (stereo partly drawn) [1.2.(2), (2R,3R,5R)-5-(4-amino-2-oxopyrimidin-1(2H)-yl)-4,4-difluoro-2-((((S)-2-oxotetrahydrofuran-3-ylamino)(phenoxy)phosphoryloxy)methyl)tetrahydrofuran-3-yl acetate], 27 nM. Take `Nc1ccn([C@@H]2O[C@H](COP(=O)(N[C@H]3CCOC3=O)Oc3ccccc3)[C@@H](O)C2(F)F)c(=O)n1` (some centres unmarked) [1.2.(1)]: the EC50 worked out at 19.8 nM. As to `O=C1OCCC1NP(=O)(OC[C@H]1O[C@@H](n2ccc(=O)[nH]c2=O)C(F)(F)[C@@H]1O)Oc1ccccc1` (stereo partly drawn) [1.1.(1), ((2R,3R,5R)-5-(2,4-dioxo-3,4-dihydropyrimidin-1(2H)-yl)-4,4-difluoro-3-hydroxytetrahydrofuran-2-yl)methyl phenyl 2-oxotetrahydrofuran-3-ylphosphoramidate], the EC50 was 459 nM. The same measure, in the same setting: under `CN1CCC(N[P@](=O)(OC[C@H]2O[C@@H](n3ccc(N)nc3=O)C(F)(F)[C@@H]2O)Oc2ccccc2)C1=O` (some centres unmarked) [2.2.(1)] stands 219 nM; under `CN1CCCC(NP(=O)(OC[C@H]2O[C@@H](n3ccc(NC(=O)OCc4ccccc4)nc3=O)C(F)(F)[C@@H]2OC(=O)OCc2ccccc2)Oc2ccccc2)C1=O` (stereo partly drawn) [1(7), benzyl 1-((2R,4R,5R)-4-(benzyloxycarbonyloxy)-3,3-difluoro-5-(((1-methyl-2-oxopiperidin-3-ylamino)(phenoxy)phosphoryloxy)methyl)tetrahydrofuran-2-yl)-2-oxo-1,2-dihydropyrimidin-4-ylcarbamate], 552 nM.

For another assay the test system is unchanged.
Test: not given
As to conditions: literature value, Murakami et al., J. Biol. Chem. 285(45), 34337-34347 (2010); read-out: EC50 of known inhibitor PSI-7851 (literature); cited from earlier work.
On to `CC(C)OC(=O)[C@H](C)NP(=O)(OC[C@H]1O[C@@H](n2ccc(=O)[nH]c2=O)[C@](C)(F)[C@@H]1O)Oc1ccccc1` (some centres unmarked) [PSI-7851, reference compound], for which the EC50 is 75 nM.
